Experiment: xn = mol fraction of the nth substance listed
Details: 101 kPa

CCCCCCCCCC[n+]1ccn(C)c1.[Br-] + O
viscosity [mPa·s]
Details	288 K	293 K	298 K	303 K	308 K
x1 = 0.0146	3.39	3.21	2.77	–	1.94
x1 = 0.0194	4.6	4.1	3.72	–	2.83
x1 = 0.0248	6.77	5.99	5.72	5.12	4.22
x1 = 0.031	9.19	8.61	8.09	7.92	7.3

— a compilation of properties of binary mixtures (doi:10.1016/j.molliq.2017.09.038)
